Experimental data as given in US20250241890A1, “1,4-DIUREAS AND 1,4-DITHIOUREAS AND USES THEREOF” (Purdue Research Foundation, priority 2024, published 2025).
“Also recorded” adds a separate entry of the source.

How the values were obtained:
Format in all cases: biochemical
α-synuclein (α-syn) [1] = molecular target: T1, α-synuclein (α-syn) (Homo sapiens, UniProt P37840); assay: Thioflavin T (ThT) fluorescence assay of α-syn fibril formation; settings: α-syn 2 μM final concentration, compounds at 100 μM, average of three replicates with SEM; read-out: % ThT intensity (100 μM), maximum ThT intensity in percentage
T1 construct: purchased rPeptide (Watkinsville, GA)
Method: Chemical and peptide source. Dimethylsulfoxide (DMSO) and thioflavin-T (ThT) were purchased from Alfa Aesar (Ward Hill, MA). Recombinant α-synuclein (α-syn) was procured from rPeptide (WatKinsville, GA). The recombinant p-tau isoform 1N4R was prepared as published previously (Fortin et al. 2021, Sui et al. 2015, Liu et al. 2020). Concerning the preparation of tau 0N4R, a bacterial expression plasmid consisting of the vector pET30a carrying a cDNA encoding the human Tau 0N4R isoform was a kind gift of Dr. Benjamin Wolozin (Boston University). E. coli stock (Rosetta BL21 E. coli (CamR) containing pET30a [0N4R tau wt] (KanR)) was grown in LB medium supplemented with kanamycin (50 μg/mL) and chloramphenicol (50 μg/mL). Protein over-expression was induced by the addition of 1 mM IPTG for ˜18 hours at 37° C., and cells were pelleted by centrifugation at 6,000 g for 15 minutes at 4° C. The cells were resuspended in lysis buffer (10 mM Hepes, pH 7.4, 50 mM NaCl, 1 mM MgCl2, 1 mM PMSF, 1× PIC, and 0.5 mM DTT) and lysed by sonication at 30 seconds “On” and 1 minute “Off” at ˜30-45% power for ˜3-5 minutes. Lysate was centrifuged at 10,000 rpm for 10 minutes at 4° C., and supernatant was transferred with 7.8 ml (total) of 3M NaCl. The lysate was incubated for 10 minutes in 80° C. water bath, then cooled for 10 minutes in an ice bath. The lysate was centrifuged at 10,000 rpm at 4° C. for 10 minutes, and the supernatant was transferred to a new tube. The supernatant was dialyzed overnight against cation exchange buffer (50 mM MES, […], 1 mM DTT, pH 6.0). The dialysate was loaded onto a HiPrep SP HP column, and proteins were eluted with a linear gradient ranging from 50 mM to 1 M NaCl. General Characterizations. ^1H and ^13C {1H} NMR spectra were recorded using a 500 MHz Bruker instrument working at a frequency of 500 MHz for ^1H and at 126 MHz for ^13C. Chemical shifts are reported in ppm using residual solvent resonances as internal reference (δ 2.50 and δ 39.51 for ^1H and ^13C in DMSO-d6, respectively). ^1H NMR data are reported as follows. b=broad, s=singlet, d=doublet, t=triplet, q=quartet, and m=multiplet. Coupling constants are given in hertz. The purity of all compounds and synthetic intermediates was judged to be 95% or better based on ^1H NMR. IR measurements were performed in a Nicolet FTIR as thin films in the Purdue Drug Discovery facility. High-resolution mass spectrometry analyses were conducted at the MSU Mass Spectrometry facility. Thioflavin fluorescence assays. […] The recombinant α-syn obtained from rPeptide has been validated with proper quality control to confirm the monomeric state of the protein. Kinetics of fibril formation have been performed using ThT as published previously.^6, 12, 13, 24 The fluorescence emission experiments were performed with the excitation and emission wavelengths set at 440 and 485 nm, respectively, with a Synergy HT multi-mode microplate reader (BioTek, Winooski, VT). Samples were measured in three replicates. Experiments were repeated three times using different α-syn stock solutions. For each time point, arbitrary units of fluorescence were calculated from the mean values normalized against the maximum value. The percentage of fluorescence intensity at the plateau phase in Table 1 was expressed as mean #SEM. Concerning the dose response curve depicted in FIG. 2, the data were plotted using GraphPad Prism. Photo-induced Cross-linking of Unmodified Proteins (PICUP) Assay. To induce oligomerization by cross-linking, α-syn (from Rpeptide, LLC) was diluted in 10 mM phosphate buffer (pH 7.4) to reach a final concentration of 50 μM. Different compounds were added to the protein solution at a final concentration of 50 μM, resulting in a molar ratio of 1:1. PICUP assays were performed with the following controls: samples without light exposition, without Ru(bpy) or ammonium persulfate, and without compound (i.e., 0.125% DMSO). […]

α-synuclein (α-syn) [2] = molecular target: T1, α-synuclein (α-syn); assay: PICUP assay of α-syn oligomer formation; settings: α-syn 60 μM, compound 50 μM (~molar ratio 1:1)
Method: Chemical and peptide source. Dimethylsulfoxide (DMSO) and thioflavin-T (ThT) were purchased from Alfa Aesar (Ward Hill, MA). Recombinant α-synuclein (α-syn) was procured from rPeptide (WatKinsville, GA). The recombinant p-tau isoform 1N4R was prepared as published previously (Fortin et al. 2021, Sui et al. 2015, Liu et al. 2020). Concerning the preparation of tau 0N4R, a bacterial expression plasmid consisting of the vector pET30a carrying a cDNA encoding the human Tau 0N4R isoform was a kind gift of Dr. Benjamin Wolozin (Boston University). E. coli stock (Rosetta BL21 E. coli (CamR) containing pET30a [0N4R tau wt] (KanR)) was grown in LB medium supplemented with kanamycin (50 μg/mL) and chloramphenicol (50 μg/mL). Protein over-expression was induced by the addition of 1 mM IPTG for ˜18 hours at 37° C., and cells were pelleted by centrifugation at 6,000 g for 15 minutes at 4° C. The cells were resuspended in lysis buffer (10 mM Hepes, pH 7.4, 50 mM NaCl, 1 mM MgCl2, 1 mM PMSF, 1× PIC, and 0.5 mM DTT) and lysed by sonication at 30 seconds “On” and 1 minute “Off” at ˜30-45% power for ˜3-5 minutes. Lysate was centrifuged at 10,000 rpm for 10 minutes at 4° C., and supernatant was transferred with 7.8 ml (total) of 3M NaCl. The lysate was incubated for 10 minutes in 80° C. water bath, then cooled for 10 minutes in an ice bath. The lysate was centrifuged at 10,000 rpm at 4° C. for 10 minutes, and the supernatant was transferred to a new tube. The supernatant was dialyzed overnight against cation exchange buffer (50 mM MES, […], 1 mM DTT, pH 6.0). The dialysate was loaded onto a HiPrep SP HP column, and proteins were eluted with a linear gradient ranging from 50 mM to 1 M NaCl. General Characterizations. ^1H and ^13C {1H} NMR spectra were recorded using a 500 MHz Bruker instrument working at a frequency of 500 MHz for ^1H and at 126 MHz for ^13C. Chemical shifts are reported in ppm using residual solvent resonances as internal reference (δ 2.50 and δ 39.51 for ^1H and ^13C in DMSO-d6, respectively). ^1H NMR data are reported as follows. b=broad, s=singlet, d=doublet, t=triplet, q=quartet, and m=multiplet. Coupling constants are given in hertz. The purity of all compounds and synthetic intermediates was judged to be 95% or better based on ^1H NMR. IR measurements were performed in a Nicolet FTIR as thin films in the Purdue Drug Discovery facility. High-resolution mass spectrometry analyses were conducted at the MSU Mass Spectrometry facility. Thioflavin fluorescence assays. Thioflavin fluorescence assays were used to monitor fibril formation of commercial recombinant α-syn at a final concentration of 2 μM and treated with control DMSO and different compounds. The recombinant α-syn obtained from rPeptide has been validated with proper quality control to confirm the monomeric state of the protein. Kinetics of fibril formation have been performed using ThT as published previously.^6, 12, 13, 24 The fluorescence emission experiments were performed with the excitation and emission wavelengths set at 440 and 485 nm, respectively, with a Synergy HT multi-mode microplate reader (BioTek, Winooski, VT). Samples were measured in three replicates. Experiments were repeated three times using different α-syn stock solutions. For each time point, arbitrary units of fluorescence were calculated from the mean values normalized against the maximum value. The percentage of fluorescence intensity at the plateau phase in Table 1 was expressed as mean #SEM. Concerning the dose response curve depicted in FIG. 2, the data were plotted using GraphPad Prism. Photo-induced Cross-linking of Unmodified Proteins (PICUP) Assay. […] Different compounds were added to the protein solution at a final concentration of 50 μM, resulting in a molar ratio of 1:1. PICUP assays were performed with the following controls: samples without light exposition, without Ru(bpy) or ammonium persulfate, and without compound (i.e., 0.125% DMSO). […]

tau isoform 0N4R = molecular target: T2, tau isoform 0N4R (Homo sapiens, UniProt P10636); assay: PICUP assay of tau 0N4R oligomer formation; settings: tau 10 μM, compound 50 μM (molar ratio 1:5)
T2 construct: made in house; host or cells: Rosetta BL21 E. coli
Method: FIG. 5. […] Compounds 1, 2, and 8 were selected for their α-syn anti-oligomerization activity. Compound 7 was used as di-urea counterpart of compound 8, as compound 1 is the di-urea counterpart of compound 2, a dithiourea derivative. Tau (10 μM) was cross-linked (PICUP assay) with different concentrations of the di-substituted aminoindolyl derivatives at 50 μM (molar ratio 1:5).
Chemical and peptide source. Dimethylsulfoxide (DMSO) and thioflavin-T (ThT) were purchased from Alfa Aesar (Ward Hill, MA). Recombinant α-synuclein (α-syn) was procured from rPeptide (WatKinsville, GA). The recombinant p-tau isoform 1N4R was prepared as published previously (Fortin et al. 2021, Sui et al. 2015, Liu et al. 2020). Concerning the preparation of tau 0N4R, a bacterial expression plasmid consisting of the vector pET30a carrying a cDNA encoding the human Tau 0N4R isoform was a kind gift of Dr. Benjamin Wolozin (Boston University). E. coli stock (Rosetta BL21 E. coli (CamR) containing pET30a [0N4R tau wt] (KanR)) was grown in LB medium supplemented with kanamycin (50 μg/mL) and chloramphenicol (50 μg/mL). […] General Characterizations. ^1H and ^13C {1H} NMR spectra were recorded using a 500 MHz Bruker instrument working at a frequency of 500 MHz for ^1H and at 126 MHz for ^13C. […] Thioflavin fluorescence assays. Thioflavin fluorescence assays were used to monitor fibril formation of commercial recombinant α-syn at a final concentration of 2 μM and treated with control DMSO and different compounds. […] Kinetics of fibril formation have been performed using ThT as published previously.^6, 12, 13, 24 The fluorescence emission experiments were performed with the excitation and emission wavelengths set at 440 and 485 nm, respectively, with a Synergy HT multi-mode microplate reader (BioTek, Winooski, VT). Samples were measured in three replicates. […] For each time point, arbitrary units of fluorescence were calculated from the mean values normalized against the maximum value. The percentage of fluorescence intensity at the plateau phase in Table 1 was expressed as mean #SEM. […]

T2 sequence (P10636 1-383 isoform P10636-6): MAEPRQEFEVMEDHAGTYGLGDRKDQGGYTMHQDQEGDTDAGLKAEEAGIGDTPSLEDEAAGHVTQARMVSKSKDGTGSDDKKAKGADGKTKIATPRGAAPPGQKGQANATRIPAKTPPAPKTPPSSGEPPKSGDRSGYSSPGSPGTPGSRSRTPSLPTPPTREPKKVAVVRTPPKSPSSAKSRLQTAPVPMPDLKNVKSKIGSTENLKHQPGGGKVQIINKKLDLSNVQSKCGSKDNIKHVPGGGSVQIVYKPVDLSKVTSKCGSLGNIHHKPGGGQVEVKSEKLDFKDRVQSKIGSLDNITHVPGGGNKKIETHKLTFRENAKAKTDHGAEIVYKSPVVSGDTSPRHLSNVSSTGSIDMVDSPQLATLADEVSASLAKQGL

| SMILES | remaining activity at 100 µM (α-synuclein (α-syn) [1]) | effect on α-syn oligomer formation (high molecular weight bands) by PICUP (α-synuclein (α-syn) [2]) | effect on tau 0N4R oligomer formation by PICUP (tau isoform 0N4R) |
| --- | --- | --- | --- |
| S=C(Nc1ccc(NC(=S)Nc2ccc3[nH]ccc3c2)cc1)Nc1ccc2[nH]ccc2c1 [Compound 4, 3-(1H-indol-5-yl)-1-(4-{[(1H-indol-5-yl)carbamothioyl]amino}phenyl)thiourea] | 46.2% | mediocre; also recorded: reduced slightly | – |
| O=C(Nc1ccc(NC(=O)Nc2ccc3cc[nH]c3c2)cc1)Nc1ccc2cc[nH]c2c1 [Compound 5, 3-(1H-indol-6-yl)-1-(4-{[(1H-indol-6-yl)carbamoyl]amino}phenyl)urea] | 58.7% | mediocre; also recorded: reduced slightly | – |
| S=C(Nc1ccc(NC(=S)Nc2ccc3cc[nH]c3c2)cc1)Nc1ccc2cc[nH]c2c1 [Compound 6, 3-(1H-indol-6-yl)-1-(4-{[(1H-indol-6-yl)carbamothioyl]amino}phenyl)thiourea] | 36.1% | mediocre; also recorded: reduced slightly | – |
| O=C(Nc1ccc(NC(=O)Nc2cccc3cc[nH]c23)cc1)Nc1cccc2cc[nH]c12 [Compound 7, 3-(1H-indol-7-yl)-1-(4-{[(1H-indol-7-yl)carbamoyl]amino}phenyl)urea] | 52.4% | – | None of these compounds were able to reduce the tau 0N4R oligomer formation |
